Tested on: proteins
Assay: Dye staining and dye stability in 12.5% trichloroacetic acid
Protocol: To make a staining mixture to combine with the sample mixture, including to test new dyes for their ability to stain proteins in a variety of situations, the selected dye is typically first dissolved in an organic solvent, such as DMSO, DMF or methanol, usually to a dye concentration of 1-10 mM. This concentrated stock solution is then generally diluted with an aqueous solution according to the assay being performed. Staining solutions can be stored and used for months without signal loss. The selected dye effectively stains proteins in a wide range of buffers if 100 mM NaCl is included in the staining solution. Acceptable buffers include, among others, 50-100 mM formate buffer, pH 4.0, sodium citrate, pH 4.5, sodium acetate, pH 5.0, MES, pH 6.0, imidazole, pH 7.0, HEPES, pH 7.5, Tris acetate, pH 8.0, Tris-HCl, pH 8.5, Tris borate, pH 9.0 and sodium bicarbonate, pH 10. Dye staining can also be performed in 12.5% trichloroacetic acid. […] A 20-minute wash in water removes the background and sensitive staining is obtained. […] Acetic acid may be included in the staining mixture, typically to a concentration of 5%-7.5% acetic acid, e.g. to improve labeling of gels relative to that obtained for dyes in water. For staining polypeptides in solution, the dye is diluted into an aqueous solution—preferably a buffered solution—that optionally contains a detergent. […]

Stability of dye on overnight exposure to 12.5% trichloroacetic acid (overnight): destroys much of the dye
SMILES: CCn1c2ccccc2c2cc(/C=C/c3cc[n+](CCCCS(=O)(=O)[O-])c4ccccc34)ccc21 [Compound 9]
Staining of proteins in 12.5% trichloroacetic acid: stains proteins brightly, but also with bright background fluorescence
